In patent EP4559919A1, “TRICYCLIC-CONTAINING MACROCYCLIC COMPOUND AND USE THEREOF” (Medshine Discovery Inc., priority 2022, dated 2024):

What was measured:
[1] = molecular target: T1, ALK(G1202R/L1196M) (Homo sapiens, UniProt Q9UM73, G1202R/L1196M); experiment: In vitro kinase inhibitory activity assay, Experimental method 1 (ADP-Glo); assay type: biochemical; conditions: final ATP 50 µM, read-out: Kinase half maximal inhibitory concentration IC50 ALK^G1202R/L1196M
T1 construct: purchased Carna
T1 sequence (Q9UM73 19-1620 L1196M/G1202R): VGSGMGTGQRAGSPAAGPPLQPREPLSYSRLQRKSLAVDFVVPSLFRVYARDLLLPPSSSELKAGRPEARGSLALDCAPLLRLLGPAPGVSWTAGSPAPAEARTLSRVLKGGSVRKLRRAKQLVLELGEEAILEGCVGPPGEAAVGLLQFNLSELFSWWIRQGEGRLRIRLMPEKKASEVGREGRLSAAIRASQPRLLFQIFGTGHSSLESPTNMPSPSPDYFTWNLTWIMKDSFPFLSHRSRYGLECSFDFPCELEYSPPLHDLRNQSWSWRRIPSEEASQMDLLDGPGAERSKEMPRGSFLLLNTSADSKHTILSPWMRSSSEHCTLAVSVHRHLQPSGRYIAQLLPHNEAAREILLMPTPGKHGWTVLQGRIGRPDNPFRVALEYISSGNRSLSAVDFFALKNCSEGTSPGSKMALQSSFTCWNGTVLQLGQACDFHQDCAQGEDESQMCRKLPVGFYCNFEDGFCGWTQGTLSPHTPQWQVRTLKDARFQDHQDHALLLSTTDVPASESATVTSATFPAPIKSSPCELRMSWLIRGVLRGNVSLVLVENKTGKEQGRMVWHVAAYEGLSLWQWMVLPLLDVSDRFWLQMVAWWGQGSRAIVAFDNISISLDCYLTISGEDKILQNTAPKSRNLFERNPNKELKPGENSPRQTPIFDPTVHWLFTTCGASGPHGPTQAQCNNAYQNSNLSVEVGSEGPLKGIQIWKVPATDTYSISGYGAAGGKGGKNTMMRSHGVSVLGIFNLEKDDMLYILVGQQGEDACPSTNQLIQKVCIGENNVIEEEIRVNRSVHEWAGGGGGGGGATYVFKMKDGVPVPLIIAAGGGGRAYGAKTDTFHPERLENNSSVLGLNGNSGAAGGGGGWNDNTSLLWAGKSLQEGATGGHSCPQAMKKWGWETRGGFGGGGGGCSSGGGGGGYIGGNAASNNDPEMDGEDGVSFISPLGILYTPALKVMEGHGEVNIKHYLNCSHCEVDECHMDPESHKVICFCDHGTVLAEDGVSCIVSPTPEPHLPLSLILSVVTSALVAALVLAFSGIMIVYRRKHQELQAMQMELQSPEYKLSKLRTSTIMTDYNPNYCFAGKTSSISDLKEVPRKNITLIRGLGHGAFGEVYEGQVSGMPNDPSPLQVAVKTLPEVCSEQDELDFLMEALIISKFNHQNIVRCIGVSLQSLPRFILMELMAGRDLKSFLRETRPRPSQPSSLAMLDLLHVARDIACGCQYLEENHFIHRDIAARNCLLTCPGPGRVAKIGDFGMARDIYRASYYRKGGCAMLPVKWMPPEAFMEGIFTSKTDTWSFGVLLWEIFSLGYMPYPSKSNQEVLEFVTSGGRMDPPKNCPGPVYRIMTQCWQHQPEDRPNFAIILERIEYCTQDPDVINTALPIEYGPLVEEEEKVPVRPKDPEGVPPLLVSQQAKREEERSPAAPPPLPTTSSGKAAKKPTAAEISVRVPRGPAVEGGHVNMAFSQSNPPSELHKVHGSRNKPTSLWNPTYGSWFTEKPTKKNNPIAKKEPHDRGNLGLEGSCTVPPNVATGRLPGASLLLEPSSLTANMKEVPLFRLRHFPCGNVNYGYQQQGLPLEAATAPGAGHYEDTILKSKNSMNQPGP
Method: (§1) The kinase inhibitory activity assays of the compounds against ALK, ALK^L1196M, ALK^G1202R, ALK^G1202R/L1196M, ROS1, and TRKB were conducted at Wuhan Heyan Biotechnology Co., Ltd. or Hefei PreceDo Biotechnology Co., Ltd.
(§2) Experimental materials: ALK Active, ALK(L1196M) Active, ALK(G1202R) Active, and ALK(G1202R/L1196M) Active were purchased from Carna; SRC Substrate was purchased from SignalChem; IGF1R tide was purchased from SignalChem; ADP-Glo Kinase Assay was purchased from Promega; Kinase assay buffer III was purchased from SignalChem; and Nivo multimode plate reader (PerkinElmer).
(§3) Each concentration of the compounds was further diluted 20-fold using 1X kinase buffer to prepare compound working solutions containing 5% DMSO. 1 µL of each concentration gradient working solution was added to a microplate, with duplicate wells set for each concentration. 2 µL of ALK enzyme (15 ng per well) and 2 µL of a mixture of substrate and ATP (25 µM ATP, 0.5 µg/µL SRC Substrate) were added to the microplate. […] The reaction system was placed at 25°C for 1 hour. After the reaction, 5 µL of ADP-Glo reagent was added to each well and reacted at 25°C for another 40 minutes. After the reaction, 10 µL of kinase detection reagent was added to each well and reacted at 25°C for 30 minutes. Chemiluminescence was then measured using the PerkinElmer Nivo multimode plate reader with an integration time of 0.5 seconds.
ALK (G1202R/L1196M) kinase inhibition assay method: The preparation method for the working solution of the test compound was the same as for the ALK kinase. […] The subsequent steps were the same as for ALK kinase.
(§4) The IC50 value could then be derived by performing a curve fit using a four-parameter logistic model (obtained using the "log(inhibitor) vs. response -- Variable slope" mode in GraphPad Prism).

[2] = molecular target: T2, TRKB (Homo sapiens, UniProt Q16620); experiment: as above; assay type: biochemical; conditions: read-out: Kinase half maximal inhibitory concentration IC50 TRKB
T2 construct: purchased Carna
T2 sequence (Q16620 32-822): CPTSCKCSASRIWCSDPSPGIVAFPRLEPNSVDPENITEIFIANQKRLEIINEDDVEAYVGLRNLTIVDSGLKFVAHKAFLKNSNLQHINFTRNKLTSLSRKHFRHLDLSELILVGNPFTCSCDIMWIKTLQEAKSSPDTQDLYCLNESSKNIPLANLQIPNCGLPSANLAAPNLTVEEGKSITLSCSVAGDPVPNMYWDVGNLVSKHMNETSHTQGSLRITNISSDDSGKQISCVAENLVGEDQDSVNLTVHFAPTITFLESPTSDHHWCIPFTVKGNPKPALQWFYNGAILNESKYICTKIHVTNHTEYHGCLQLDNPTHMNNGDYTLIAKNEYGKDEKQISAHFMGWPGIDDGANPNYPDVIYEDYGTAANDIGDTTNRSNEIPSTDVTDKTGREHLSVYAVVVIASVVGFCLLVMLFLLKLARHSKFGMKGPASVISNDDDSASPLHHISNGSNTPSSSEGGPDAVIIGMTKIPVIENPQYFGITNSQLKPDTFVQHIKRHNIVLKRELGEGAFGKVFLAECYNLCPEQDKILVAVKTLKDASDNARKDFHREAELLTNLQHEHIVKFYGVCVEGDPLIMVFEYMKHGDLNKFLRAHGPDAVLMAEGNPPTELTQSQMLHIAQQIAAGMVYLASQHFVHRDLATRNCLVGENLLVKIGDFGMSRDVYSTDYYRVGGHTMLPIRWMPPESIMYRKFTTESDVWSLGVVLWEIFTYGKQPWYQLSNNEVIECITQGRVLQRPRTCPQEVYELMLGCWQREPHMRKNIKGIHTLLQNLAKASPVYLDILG
Method: as §1, §2, §3
TRKB kinase inhibition assay method: The preparation method for the working solution of the test compound was the same as for the ALK kinase. 2 µL of TRKB (0.5 ng per well) and 4 µL of a mixture of substrate and ATP (5 µM ATP, 0.5 µM SRC Substrate) were added to the microplate. […] The subsequent steps were the same as for ALK kinase.
as §4

[3] = molecular target: T3, ALK(G1202R) (Homo sapiens, UniProt Q9UM73, G1202R); experiment: as above; assay type: biochemical; conditions: final ATP 50 µM, read-out: Kinase half maximal inhibitory concentration IC50 ALK^G1202R
T3 construct: purchased Carna
T3 sequence (Q9UM73 19-1620 G1202R): as the sequence (Q9UM73 19-1620 L1196M/G1202R) above, with M1178L counted along it
Method: as §1, §2, §3
ALK (G1202R) kinase inhibition assay method: The preparation method for the working solution of the test compound was the same as for the ALK kinase. […] The subsequent steps were the same as for ALK kinase.
as §4

[4] = molecular target: ROS1 (Homo sapiens, UniProt P08922); experiment: as above; assay type: biochemical; conditions: read-out: Kinase half maximal inhibitory concentration IC50 ROS1
Method: as §1, §2
as §3, with “After the reaction, 10 µL of kinase detection reagent was added to each well and reacted at 25°C for 30 minutes.” left out, “seconds. […]” for “seconds.”

[5] = molecular target: T1, ALK(G1202R/L1196M); experiment: In vitro kinase inhibitory activity assay, Experimental method 2 (ADP-Glo); assay type: biochemical; conditions: Experimental method 2; ATP 5.0 µM, substrate IGF1; read-out: Kinase half maximal inhibitory concentration IC50 ALK^G1202R/L1196M
Method: as §1
(§5) Experimental materials: ALK (G1202R/L1196M) Active and TRKB were purchased from Carna; IGF1 was purchased from GenScript; PolyE4Y1 was purchased from SIGMA; ADP-Glo™ Reagent was purchased from Promega; ATP was purchased from Promega; Kinase Detection Reagent was purchased from Promega; microplate reader ( PerkinElmer).
Reaction system: ALK(G1202R/L1196M) reaction concentration 8.63 nM, ATP concentration 5.0 µM, substrate IGF1 concentration 0.2 µg/µL. ALK(G1202R/L1196M) kinase buffer was 40 mM Tris-HCl (pH 7.5) + 20 mM magnesium chloride + 0.1 mg/mL BSA + 50 µM DTT.
(§6) ALK(G1202R/L1196M) and TRKB detection method: 2 µL of kinase and 1 µL of compound were added to a 384-well plate; 2 µL of substrate/ATP mixture was added and incubated at room temperature in the dark for 60 minutes; 5 µL of ADP-Glo™ reagent was added and incubated at room temperature for 40 minutes; 10 µL of kinase detection reagent was added and incubated at room temperature for 30 minutes; the plate was read on a microplate reader, and luminescence was recorded (integration time set to 0.5 seconds).
as §4

[6] = molecular target: T2, TRKB; experiment: as above; assay type: biochemical; conditions: Experimental method 2; ATP 5.0 µM, substrate PolyE4Y1; read-out: Kinase half maximal inhibitory concentration IC50 TRKB
Method: as §1, §5
TRKB reaction concentration 4.47 nM, ATP concentration 5.0 µM, substrate PolyE4Y1 concentration 0.2 µg/µL. TRKB kinase buffer was 40 mM Tris-HCl (pH 7.5) + 20 mM magnesium chloride + 2.5 mM manganese chloride + 0.1mg/mL BSA+ 50 µM DTT.
as §6, §4

[7] = test system: Ba/F3-EML4-ALK-G1202R/L1196M; experiment: Anti-proliferative activity test on Ba/F3 cell lines (CellTiter-Glo); assay type: cell-based; conditions: for IC50: Ba/F3 EML4-ALK-G1202R-L1196M, 72 hours, read-out: Half maximal inhibitory concentration IC50 for cells Ba/F3-EML4-ALK-G1202R/L1196 M
Method: (§7) • (1) Cell culture: The cell lines were cultured in an incubator at 37°C with 5% CO2. Regular passaging was performed, and cells in the logarithmic growth phase were selected for plating; • (2) Preparation of compound storage plate: The test compounds were prepared into a 10 mM solution with DMSO (Stock Con.); The compounds were then prepared into a 1 mM solution with DMSO (Work Con.); 1 µL of the stock solution was mixed with 9 µL of DMSO to prepare a 10 µL work solution. • (3) Preparation of 1000× compound storage plate (tube): The compounds were 3-fold serially diluted from […] to the lowest concentration, for a total of 8 concentrations; • (4) Preparation of 20× compound working solution: 98 µL of cell culture medium was added to a flat-bottomed 96-well transparent drug plate. From the 1000× compound storage plate, 2 µL of the compound was pipetted into the cell culture medium in the 96-well transparent drug plate. In the solvent control, 2 µL of DMSO was added. After the compound or DMSO was added, the mixture was homogenized using a pipette. • (5) Cells were stained with trypan blue and viable cells were counted to ensure a cell viability of 90% or more. The cell concentration was adjusted to an appropriate concentration; • (6) 95 µL of cell suspension (2000 cells/well) was added to each well of the compound assay cell plate, and cell-free culture medium containing 0.1% DMSO was added to the Min control wells; • (7) Administration in the compound assay cell plate: 5 µL of 20× compound working solution was added to the cell culture plate, 5 µL of DMSO-cell culture medium mixture was added to the Max control wells, and the final concentration of DMSO was 0.1%; • (8) The culture plate was then incubated in an incubator at 37°C with 5% CO2 for 72 hours; • (9) The following operations were conducted in accordance with the instructions of the Promega CellTiter-Glo Luminescent Cell Viability Assay Kit (Promega-G7573): CellTiter-Glo buffer was thawed and brought to room temperature; CellTiter-Glo substrate was brought to room temperature; CellTiter-Glo buffer was added to a bottle of CellTiter-Glo substrate to dissolve the substrate, thereby preparing CellTiter-Glo working solution; The mixture was slowly vortexed and shaken to be fully dissolved; The cell culture plate was removed and allowed to equilibrate to room temperature for 10 minutes; 50 µL (equal to half the volume of cell culture medium in each well) of CellTiter-Glo working solution was added to each well; The culture plate was shaken on an orbital shaker for 2 minutes to induce cell lysis; The plate was then left at room temperature for 10 minutes to stabilize the luminescent signal; The luminescent signal was detected using a SpectraMax Paradigm plate reader; Cell viability assay was conducted using CellTiter-Glo luminescence method.
(§8) Data analysis: The corresponding […] value (RLU) for each well was obtained from SpectraMax Paradigm readings. […] The inhibition rates corresponding to compounds at different concentrations were calculated in Excel, and the inhibition rate curves were plotted using GraphPad Prism software to calculate relevant parameters, including the maximum and minimum inhibition rates of the cells and the IC50 value.

[8] = test system: Ba/F3-TEL-TRKB; experiment: as above; assay type: cell-based; conditions: Mus musculus, BaF3; 72 hours; read-out: Half maximal inhibitory concentration IC50 for cells Ba/F3-TEL-TRKB
Method: as §7, §8

[9] = In vivo pharmacokinetic testing in mice; set-up: species or system male CD-1 mice; conditions: mouse, IV, 0.5 mg/kg, plasma
Method: The objective was to study the pharmacokinetic behavior of the compounds of the present disclosure in mice, using male CD-1 mice aged 7 to 9 weeks as test animals. The concentrations of the compounds in plasma at different time points after a single intravenous injection (IV) and oral gavage (PO) administration of the compound were determined using LC/MS/MS.
Two groups of healthy mice (fasted) were administered the compounds via intravenous injection (IV) and oral gavage (PO), with 2 mice in each group.
The test compounds were mixed with the solvent, vortexed, and sonicated to prepare a clear solution with a concentration of 0.5 mg/mL and a pH of 3.3-3.6. The intravenous injection dose for the mice was 1.0 mg/kg. […] The test compounds were mixed with the solvent, vortexed, and sonicated to prepare a homogeneous suspension with particles at a concentration of 0.5 mg/mL and a pH of 6.8-7.0. The oral gavage dose for the mice was 5.0 mg/kg.
The test compound was mixed with the solvent, vortexed, and sonicated to prepare a clear solution with a concentration of 1.0 mg/mL. The intravenous injection dose for the mice was 1.0 mg/kg. […] The test compound was mixed with the solvent, vortexed, and sonicated to prepare a homogeneous suspension with particles at a concentration of 0.5 mg/mL. The oral gavage dose for the mice was 5.0 mg/kg.
The test compounds were mixed with the solvent, vortexed, and sonicated to prepare a clear solution with a concentration of 0.1 mg/mL. The intravenous injection dose for the mice was 0.5 mg/kg. […] The test compound was mixed with the solvent, vortexed, and sonicated to prepare a homogeneous suspension with particles at a concentration of 0.5 mg/mL and a pH of 7.08. The oral gavage dose for the mice was 5.0 mg/kg. After administration, the whole blood was collected at the time points of 0.083 hours, 0.25 hours, 0.5 hours, 1.0 hour, 2.0 hours, 4.0 hours, 8.0 hours, 12.0 hours, and 24.0 hours. Plasma was prepared from the whole blood and analyzed for drug concentration by LC-MS/MS. The pharmacokinetic parameters were calculated using Phoenix WinNonlin 6.3.

[10] = molecular target: T4, CYP2C9 (Homo sapiens, UniProt P11712); experiment: Cytochrome P450 isozyme inhibitory activity test (human liver microsomes); assay type: in vitro ADME; conditions: human liver microsomes 0.1 mg/mL; probe substrate Diclofenac
T4 construct: Mixed human liver microsomes (HLM) purchased from Corning Inc; tissue Corning Inc; host or cells: pooled human liver microsomes
T4 sequence (P11712 whole entry): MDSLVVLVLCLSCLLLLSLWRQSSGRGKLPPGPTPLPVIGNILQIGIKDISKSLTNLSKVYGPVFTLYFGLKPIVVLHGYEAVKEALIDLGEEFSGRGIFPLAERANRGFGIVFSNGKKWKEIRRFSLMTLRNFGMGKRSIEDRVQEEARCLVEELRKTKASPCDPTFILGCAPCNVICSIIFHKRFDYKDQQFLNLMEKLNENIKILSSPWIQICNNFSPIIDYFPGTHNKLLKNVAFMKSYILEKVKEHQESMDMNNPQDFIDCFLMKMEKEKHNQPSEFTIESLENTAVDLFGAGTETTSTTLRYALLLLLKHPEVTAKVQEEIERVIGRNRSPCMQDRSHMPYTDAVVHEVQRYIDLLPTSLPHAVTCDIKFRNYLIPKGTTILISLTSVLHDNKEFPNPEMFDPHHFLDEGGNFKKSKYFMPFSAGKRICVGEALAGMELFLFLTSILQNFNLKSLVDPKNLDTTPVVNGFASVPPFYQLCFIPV
Method: To test the inhibitory activity of the compounds of the present disclosure on different subtypes of human liver microsomal cytochrome P450 isozymes.
Mixed human liver microsomes (HLM) purchased from Corning Inc. (Steuben, New York, USA); Diclofenac as the probe substrate (10 µM); Sulfaphenazole as the positive control inhibitor; 4'-Hydroxydiclofenac as the metabolite
Preparation of test system working solution: Human liver microsomes (HLM): HLM stock solution at 20.0 mg/mL, working solution at 0.2 mg/mL, final concentration at 0.1 mg/mL; Potassium phosphate buffer: 100 mM; Cofactor working solution: Magnesium chloride, NADP (nicotinamide adenine dinucleotide phosphate), G6P (glucose-6-phosphate), G6PDH (glucose-6-phosphate dehydrogenase), and phosphate buffer or magnesium chloride, NADPH (reduced nicotinamide adenine dinucleotide phosphate) powder, and potassium phosphate buffer; prepared into cofactor working solution at appropriate ratios;
Stop solution: Isotope-labeled 4'-hydroxydiclofenac-d4 stock solution prepared in methanol, then prepared into stop solution using acetonitrile.
In the substrate-free control sample wells of the reaction plate, 100 µL of a mixture of human liver microsome and potassium phosphate buffer was added. At the zero-time point sample wells, 98 µL of a mixture of the human liver microsome and potassium phosphate buffer was added. In the no-inhibitor control (NIC), test compound, and positive control inhibitor sample wells of the reaction plate, 100 µL of a mixture of the human liver microsome and substrate was added. From the dilution plate, 2 µL of blank solvent, test compound working solution (three parallels), and positive control inhibitor working solution (two parallels) were added to the reaction plate. The reaction plate was preheated at 37.0°C for 10 minutes. […] The concentration of specific metabolites in the samples was detected using the liquid chromatography-tandem mass spectrometry (LC-MS/MS) method. […] The IC50 values were calculated using a three-parameter or four-parameter inverse log equation.

[11] = molecular target: T5, CYP3A4-M (Homo sapiens, UniProt P08684); experiment: as above; assay type: in vitro ADME; conditions: human liver microsomes 0.1 mg/mL
T5 construct: Mixed human liver microsomes (HLM) purchased from Corning Inc; tissue Corning Inc; host or cells: pooled human liver microsomes
T5 sequence (P08684 whole entry): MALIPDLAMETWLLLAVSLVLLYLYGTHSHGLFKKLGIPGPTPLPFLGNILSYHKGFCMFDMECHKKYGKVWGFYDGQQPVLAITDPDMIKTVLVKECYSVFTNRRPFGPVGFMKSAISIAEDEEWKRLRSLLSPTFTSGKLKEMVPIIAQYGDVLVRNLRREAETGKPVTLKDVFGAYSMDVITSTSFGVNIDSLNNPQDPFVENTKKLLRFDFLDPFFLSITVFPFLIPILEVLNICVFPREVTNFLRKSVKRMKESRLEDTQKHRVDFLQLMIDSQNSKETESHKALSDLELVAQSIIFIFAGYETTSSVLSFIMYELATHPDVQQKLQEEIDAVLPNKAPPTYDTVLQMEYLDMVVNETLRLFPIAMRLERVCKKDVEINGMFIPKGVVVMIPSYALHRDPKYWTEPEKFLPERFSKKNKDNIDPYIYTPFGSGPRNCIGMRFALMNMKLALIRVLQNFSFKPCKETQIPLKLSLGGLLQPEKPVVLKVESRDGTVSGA

Compound | IC50 [1] [nM] | IC50 [2] [nM] | IC50 [3] [nM] | IC50 [4] [nM] | IC50 [5] [nM] | IC50 [6] [nM] | IC50 [7] [nM] | selectivity: inhibition against ALK-mutant cells versus TRKB phenotypic cells ([7]; stronger inhibition of ALK-mutant cells, relatively weaker of TRKB phenotypic cells) | IC50 [8] [nM] | Vd ([9]; read-out: Apparent volume of distribution Vd) [L/kg] | AUC(0-t) ([9]; read-out: Area under the curve AUC0-last) [µM·h] | half-life ([9]; read-out: Half-life T1/2 (converted)) [h] | IC50 [10] [nM] | IC50 [11] [nM]
CON=C1NC(C)(C)COc2ncc(F)cc2CN2c3nc4c1cnn4cc3OC[C@H]2C(F)F [Compound 005] | 5.2 | 1.2 | 3.8 | 0.6 | – | – | – | – | – | – | – | – | – | –
C#Cc1nn2cc3c4nc2c1C(=O)NC(C)(C)COc1ccc(F)cc1CN4[C@H](C(F)F)CO3 [Compound 019] | – | – | – | – | 0.9 | 2.5 | 1.7 | excellent selectivity | 3.5 | 0.274 | 15.2 | 1.28 | – | –
N#Cc1nn2cc3c4nc2c1C(=O)NC1(CCC1)COc1ccc(F)cc1CN4[C@H](C(F)F)CO3 [Compound 022] | – | – | – | – | 7.8 | 24.7 | 4.2 | – | 2.3 | – | – | – | 460 | > 50000
N#Cc1nn2cc3c4nc2c1C(=O)N[C@H]1C[C@H](C1)Oc1ccc(F)cc1CN4[C@H](C(F)F)CO3 [Compound 024] | – | – | – | – | 2.3 | 5.3 | 1.6 | – | 0.8 | – | – | – | 2120 | > 50000
